Results from paper PMC8868518, “Exploring Titanium(IV) Complexes as Potential Antimicrobial Compounds” (Antibiotics, 2022).
Read-outs that look alike come from different tables or passages of the source.

Experiments:
MRC-5 cells [1] = assay: MRC-5 cell viability, dose-response treatment, MTT assay; format: cell-based, human; conditions: pH 7.4
Procedure: A thawed stock of MRC-5 cells was washed with 1X PBS and resuspended in phenol red DMEM media (supplemented with 10% FBS and 1% of penicillin-streptomycin) and then seeded in a 100 mm × 20 mm (complete, O.D. x H) petri dish and grown in a 5% (v/v) CO2 humidified atmosphere at 37 °C. At least three passages were performed to ensure the integrity of the cells. After this point, cells were collected, thoroughly washed with 1X PBS, and then resuspended in phenol red-free DMEM (supplemented with 10% FBS, 1% Streptomycin/Penicillin, and 2.4 mM L-glutamine) at a 2.0 × 10^5 cells/mL concentration. Approximately 100 µL of the cell solution was seeded into wells of several 96-well plates to begin the MTT assay, which was performed in the 5% (v/v) CO2 humidified atmosphere at 37 °C. At least one lane of wells in each plate was supplied media without cells as a control. […] Most of the compounds were dissolved in 1X PBS buffer at pH 7.4. […] Titanocene dichloride was prepared as a fresh stock solution in DMSO and then diluted in 0.1 M NaCl (aq) instead of 1X PBS (to minimize hydrolysis induced precipitation) to the desired concentration while maintaining a constant 1% (v/v) DMSO background (0.5% DMSO after mixing with the well media). A control of cells treated with media containing 1% (v/v) DMSO was included in the study. The titanocene solutions were used within an hour of preparation in the final cell solution. […] At 3 h before a total of 72 h of incubation with the compounds, the cells were treated with 25 µL of 9 mg/mL MTT prepared in 1X PBS and sterile-filtered. Upon completion of the three hours, 50 µL of 10% (w/v) SDS (prepared in 0.1 M Tris buffer at pH 11) was added to solubilize the purple formazan product crystals and left overnight in the incubator. Control wells in the plates consisted of: (1) Untreated cells + MTT as the measure of 100% viable cell growth in the media and (2) Media with no cells + MTT as the measure of zero cells in the media. Two sets of compounds could be tested per plate. The plates were read at the wavelength of 570 nm (absorbance of the formazan product at pH 10.0) and 800 nm (background control) using a Tecan plate reader. The absorbance of all wells was compared to the absorbance of the untreated cells with the MTT set as the 100% viable cell standard and the absorbance of the zero cell control set as the 0% viable cell standard. […] Nonlinear regression in Origin 8.5 was utilized to fit the growth curves using the pharmacology dose–response equation to determine the half-maximal inhibitory concentration (IC50) and the corresponding standard deviation. All samples were tested six times.

[2] = tested on: K. pneumoniae (ATCC 700603); assay: CO-ADD antibacterial assay, growth inhibition (OD600); format: cell-based, Klebsiella pneumoniae; conditions: up to 32 μg/mL; for MIC K. pneumoniae: predicted or measured MIC, ≥75% growth inhibition
Procedure: (§1) Dry compounds ranging from 1–2 mg were weighed into properly labeled Eppendorf tubes and sealed with parafilm. The compounds were used as received by the CO-ADD. For the screenings, most compounds were dissolved to a stock concentration of 10 mg/mL in DMSO. K2[Ti(Citrate)3], Na3Citrate, and K2[TiO(Oxalate)2] were dissolved in warm water. […] Samples were diluted in water to a final testing concentration of 32 µg/mL while keeping the final co-solvent concentration to a maximum of 0.5%. Where applicable, compounds were serially diluted 1:2 fold eight times. Each sample concentration was prepared in 384-well plates, non-binding surface plate (NBS; Corning 3640) for each bacterial/fungal strain, tissue-culture treated (TC-treated; Corning 3712/3764), black for mammalian cell types and polypropylene 384-well (PP; Corning 3657) for hemolysis assays, all in duplicate (n = 2), and keeping the final DMSO concentration to a maximum of 0.5%. All sample preparation was conducted using liquid handling robots.
(§2) For the bacterial assays, four Gram-negative bacteria (E. coli (ATCC 25922, Manassas, VA, USA); K. pneumoniae (ATCC 700603), A. baumannii; (ATCC 19606), and P. aeruginosa (ATCC 27853) and the Gram-positive bacteria (S. aureus MRSA (ATCC 43300) were used. Each strain was cultured in cation-adjusted Mueller Hinton broth (CAMHB; Bacto Laboratories 212322, Mount Pritchard, Australia) at 37 °C overnight. A sample of each culture was then diluted 40-fold in fresh CAMHB and incubated at 37 °C for 1.5–3 h. The resultant mid-log phase cultures were diluted with CAMHB (CFU/mL measured by OD600), then added to each well of the compound-containing plates (384-well non-binding surface (NBS) plates; Corning CLS3640, Millipore Sigma, Burlington, MA, USA), giving a cell density of 5 × 10^5 CFU/mL and a total volume of 50 µL. Plates were covered and incubated at 37 °C for 18 h without shaking. Inhibition of bacterial growth was determined by measuring absorbance at 600 nm (OD600) with a Tecan M1000 Pro monochromator plate reader, using media-only as negative control and bacteria without inhibitors as a positive control. […] Colistin sulfate (Sigma C4461) and vancomycin HCl (Sigma 861987) were used as internal controls on each plate for Gram-negative and Gram-positive bacteria, respectively.

[3] = tested on: C. neoformans (ATCC 208821); assay: CO-ADD antifungal assay, growth inhibition (resazurin, OD600-570); format: cell-based, Cryptococcus neoformans; conditions: up to 32 μg/mL; for MIC C. neoformans: predicted or measured MIC, ≥75% growth inhibition, 36 h
Procedure: (§3) The compounds were used as received by the CO-ADD. For the screenings, most compounds were dissolved to a stock concentration of 10 mg/mL in DMSO. K2[Ti(Citrate)3], Na3Citrate, and K2[TiO(Oxalate)2] were dissolved in warm water. [Cu(Deferasirox)(H2O)]2 was dissolved in pyridine after its solubility was determined to be excellent in pyridine due to coordination of the solvent to the metal producing [Cu(Deferasirox)(pyridine)]2 in situ. […] Each sample concentration was prepared in 384-well plates, non-binding surface plate (NBS; Corning 3640) for each bacterial/fungal strain, tissue-culture treated (TC-treated; Corning 3712/3764), black for mammalian cell types and polypropylene 384-well (PP; […] All sample preparation was conducted using liquid handling robots. For the fungal assays, the fungi (C. albicans (ATCC 90028) and C. neoformans) (ATCC 208821) were used. Both fungi (yeast) strains were cultured for 3 days on Yeast Extract-Peptone Dextrose (YPD; Becton Dickinson 242720, Thermo Fisher Scientific, Waltham, MA, USA) agar at 30 °C. A yeast suspension of 1 × 10^6 to 5 × 10^6 CFU/mL (as determined by OD530) was prepared from five colonies from the agar plates, subsequently diluted with Yeast Nitrogen Base media (YNB; Becton Dickinson 233520, Thermo Fisher Scientific, Waltham, MA, USA), and added to each well of the compound-containing plates (384-well plates, NBS; Corning CLS3640) giving a final cell density of 2.5 × 10^3 CFU/mL and a total volume of 50 μL. Plates were covered and incubated at 35 °C for 36 h without shaking. […] Sigma R7017) and incubation at 35 °C for 2 h, using media-only as a negative control and fungi without inhibitors as a positive control. […] Fluconazole (Sigma F8929) was used as an internal control on each plate for both strains.

[4] = tested on: S. aureus MRSA (ATCC 43300); assay: CO-ADD antibacterial assay, growth inhibition (OD600); format: cell-based, Staphylococcus aureus; conditions: for MIC S. aureus (MRSA): predicted or measured MIC, lowest concentration with ≥75% growth inhibition, 0.25-32 μg/mL, 18 h; for Dmax S. aureus (MRSA), maximum % inhibition: up to 32 μg/mL
Procedure: as §1, §2

C. albicans (ATCC 90028) = assay: CO-ADD antifungal assay, growth inhibition (OD630); format: cell-based, Candida albicans; conditions: up to 32 μg/mL; for MIC C. albicans: predicted or measured MIC, ≥75% growth inhibition, 36 h
Procedure: as §3

[5] = tested on: A. baumannii (ATCC 19606); assay: CO-ADD antibacterial assay, growth inhibition (OD600); format: cell-based, Acinetobacter baumannii; conditions: up to 32 μg/mL; for MIC A. baumannii: predicted or measured MIC, ≥75% growth inhibition
Procedure: as §1, §2

E. coli (ATCC 25922) = assay: as above; format: cell-based, Escherichia coli; conditions: up to 32 μg/mL; for MIC E. coli: predicted or measured MIC, ≥75% growth inhibition
Procedure: as §1, §2

[6] = tested on: P. aeruginosa (ATCC 27853); assay: as above; format: cell-based, Pseudomonas aeruginosa; conditions: up to 32 μg/mL; for MIC P. aeruginosa: predicted or measured MIC, ≥75% growth inhibition
Procedure: as §1, §2

[7] = Aqueous solution stability, ligand exchange lability and solubility; conditions: water / aqueous buffer
[8] = cited from earlier work
[9] = tested on: HEK293 ATCC CRL-1573 human embryonic kidney cells; assay: CO-ADD cytotoxicity assay (resazurin); format: cell-based; conditions: all concentrations examined (0.25-32 μg/mL), 20 h; CC50 could not be measured
Procedure: The compounds were used as received by the CO-ADD. For the screenings, most compounds were dissolved to a stock concentration of 10 mg/mL in DMSO. K2[Ti(Citrate)3], Na3Citrate, and K2[TiO(Oxalate)2] were dissolved in warm water. [Cu(Deferasirox)(H2O)]2 was dissolved in pyridine after its solubility was determined to be excellent in pyridine due to coordination of the solvent to the metal producing [Cu(Deferasirox)(pyridine)]2 in situ. […] Each sample concentration was prepared in 384-well plates, non-binding surface plate (NBS; Corning 3640) for each bacterial/fungal strain, tissue-culture treated (TC-treated; Corning 3712/3764), black for mammalian cell types and polypropylene 384-well (PP; […] All sample preparation was conducted using liquid handling robots. HEK293 ATCC CRL-1573 human embryonic kidney cells were counted manually in a Neubauer hemocytometer and added to compound-containing plates (384-well plates, tissue culture-treated (TC); […] Life Technologies 11995-073) with 10% FBS (GE SH30084.03).

MRC-5 cells [10] = conditions: cited from earlier work
[11] = tested on: hemolytic and nonhemolytic S. aureus cultures; parameters: method as in doi:10.2298/abs141203061g; conditions: cited from earlier work
[12] = tested on: total intestinal bacterial count; parameters: method as in PMID 11762532; conditions: white mice, supplied in bread; cited from earlier work

Row | SMILES | MIC K. pneumoniae [2] [mg/L] | Dmax K. pneumoniae, maximum % inhibition [2] [%] | MIC C. neoformans [3] [mg/L] | Dmax C. neoformans, maximum % inhibition [3] [%] | MIC S. aureus (MRSA) [4] [mg/L] | Dmax S. aureus (MRSA), maximum % inhibition [4] [%] | MIC C. albicans (C. albicans (ATCC 90028)) [mg/L] | Dmax C. albicans, maximum % inhibition (C. albicans (ATCC 90028)) [%] | MIC A. baumannii [5] [mg/L] | Dmax A. baumannii, maximum % inhibition [5] [%] | MIC E. coli (E. coli (ATCC 25922)) [mg/L] | Dmax E. coli, maximum % inhibition (E. coli (ATCC 25922)) [%] | MIC P. aeruginosa [6] [mg/L] | Dmax P. aeruginosa, maximum % inhibition [6] [%] | further results
1 | O=C1[O][Ti-2]23([O]C(=O)c4ccccc4[O]2)([O]C(=O)c2ccccc2[O]3)[O]c2ccccc21.[Na+].[Na+] [Compound 12, Na2[Ti(Salicylate)3]] | >32 | 12.46 | >32 | −5.2 | >32 | 3.66 | >32 | 49.3 | >32 | 9.4 | >32 | 2.6 | >32 | 9.57 | IC50 ± SD (µg/mL), relative IC50 (MRC-5 cells [1]): 5.14 ± 0.92 µg/mL; IC50 (MRC-5 cells [1]; read-out: IC50 ± SD (µM), relative IC50): 8.6 ± 1.54 µM; solubility (in words) [7]: limited solubility in water
2 | O=C1CN2CCN3CC(=O)[O][Ti]([O]1)([O]c1ccccc1C2)[O]c1ccccc1C3 [Compound 11, Ti(HBED)] | >32 | 56.3 | >32 | −18.86 | >32 | 61.46 | >32 | 10.43 | >32 | 68.73 | >32 | 48.02 | >32 | 72.48 | solution stability (in words) ([8]; pH 4): highly stable in solution; antiproliferative effect against HEK293 (in words) [9]: inactive; IC50 ± SD (MRC-5 cells [10]): 18.5 ± 1.9 mg/L; IC50 (MRC-5 cells [10]; read-out: IC50 ± SD): 42 ± 4.4 µM
3 | O=C([O-])CC1(CC(=O)[O-])[O][Ti-2]23([O]C1=O)([O]C(=O)C(CC(=O)[O-])(CC(=O)[O-])[O]2)[O]C(=O)C(CC(=O)[O-])(CC(=O)[O-])[O]3 [Ti(citrate)3^8−] |  |  |  |  |  |  |  |  |  |  |  |  |  |  | ligand exchange lability (in words) [8]: ligand exchange labile; biofilm formation (in words) ([11]; all concentrations tested (0.5 to 50 mM)): significantly activated biofilm formation; concentration with significant inhibition of growth rate ([11]; only the early phase of the bacterial growth cycle): 50 mM
4 | O=C(O)C(=O)O.[O]=[Ti] [titanyl oxalate] |  |  |  |  |  |  |  |  |  |  |  |  |  |  | decrease in the total intestinal bacterial count [12]: 50%
